Tests used:
Assay type in all cases: in vivo
[1] = tested on: field corn (Zea mays L., var. Dekalb 535, CORN); test: Pre-emerge test, crop safety; details: rated 14 days after application, 0 = no damage, 100 = complete death
Method in brief: (§1)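 Compounds in acetone were track-sprayed at 15-1000 g ai/ha (187 l/ha) on sandy loam pots: pre-emerge one day after seeding, post-emerge at 2-3 leaf stage with 0.25% v/v non-ionic surfactant. Phytotoxicity was rated 14 days later on a 0 (no damage) to 100 (complete death) scale.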

[2] = tested on: upland rice (Oryza sp., var. Tebonnet, RICE); test: Pre-emerge test, crop safety; details: rated 14 days after application, 0 = no damage, 100 = complete death
Method in brief: as §1

[3] = tested on: redroot pigweed (Amaranthus retroflexus, AMARE); test: Pre-emerge test, greenhouse herbicide activity screening; details: rated 14 days after application, 0 = no damage, 100 = complete death
Method in brief: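 Rating: 0–100 visual injury, 14 DAA. Application: acetone, 187 l/ha, 15–1000 g ai/ha, flat-fan track sprayer with nozzle 40–45 cm above soil or canopy. Post-emerge runs used 0.25% v/v surfactant on 2–3 leaf plants.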

[4] = tested on: ivyleaf morningglory (Ipomoea hederacea, IPOHE); test: Post-emerge test, greenhouse herbicide activity screening; details: phytotoxicity rating 0-100 (0 no damage, 100 complete death), 14 days after application
Method in brief: (§2)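 Plants grown in 10 cm pots of sandy loam mix received acetone-dissolved compounds through a moving flat-fan nozzle. Doses ranged from 15 to 1000 g ai/ha. Pre-emerge pots were seeded one day earlier, post-emerge pots 8–21 days earlier. Fourteen days on, each pot was graded 0–100 for damage.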

[5] = tested on: sicklepod (Cassia obtusifolia, CASOB); test: as above; details: phytotoxicity rating 0-100 (0 no damage, 100 complete death), 14 days after application
Method in brief: as §2

[6] = tested on: lambsquarters (Chenopodium album, CHEAL); test: as above; details: phytotoxicity rating 0-100 (0 no damage, 100 complete death), 14 days after application
Method in brief: as §2

[7] = tested on: velvetleaf (Abutilon theophrasti, ABUTH); test: as above; details: phytotoxicity rating 0-100 (0 no damage, 100 complete death), 14 days after application
Method in brief: as §2

[8] = tested on: large crabgrass (Digitaria sanguinalis, DIGSA); test: as above; details: phytotoxicity rating 0-100 (0 no damage, 100 complete death), 14 days after application
Method in brief: as §2

[9] = tested on: barnyardgrass (Echinochloa crus-galli, ECHCG); test: as above; details: phytotoxicity rating 0-100 (0 no damage, 100 complete death), 14 days after application
Method in brief: as §2

[10] = tested on: johnsongrass (Sorghum halepense, SORHA); test: as above; details: phytotoxicity rating 0-100 (0 no damage, 100 complete death), 14 days after application
Method in brief: as §2

[11] = tested on: green foxtail (Setaria viridis, SETVI); test: as above; details: phytotoxicity rating 0-100 (0 no damage, 100 complete death), 14 days after application
Method in brief: as §2

[12] = tested on: redroot pigweed (Amaranthus retroflexus, AMARE); test: as above; details: phytotoxicity rating 0-100 (0 no damage, 100 complete death), 14 days after application
Method in brief: as §2

[13] = tested on: field corn (Zea mays L., var. Dekalb 535, CORN); test: Post-emerge test, crop safety; details: phytotoxicity rating 0-100 (0 no damage, 100 complete death), 14 days after application
Method in brief: (§3)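 Sandy loam pots; pre-emerge: sown 1 d pre-spray, surface-watered after, then bottom-watered. Post-emerge: sown 8–21 d before, 2–3 leaf stage, + 0.25% v/v NIS, bottom-watered. Acetone, 187 l/ha track spray, 15–1000 g ai/ha. 0–100 injury score, day 14.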

[14] = tested on: upland rice (Oryza sp., var. Tebonnet, RICE); test: Post-emerge test, crop safety; details: phytotoxicity rating 0-100 (0 no damage, 100 complete death), 14 days after application
Method in brief: as §3

[15] = tested on: ivyleaf morningglory (Ipomoea hederacea, IPOHE); test: Pre-emerge test, greenhouse herbicide activity screening; details: rated 14 days after application, 0 = no damage, 100 = complete death
Method in brief: as §3

[16] = tested on: sicklepod (Cassia obtusifolia, CASOB); test: as above; details: rated 14 days after application, 0 = no damage, 100 = complete death
Method in brief: as §3

[17] = tested on: lambsquarters (Chenopodium album, CHEAL); test: as above; details: rated 14 days after application, 0 = no damage, 100 = complete death
Method in brief: as §3

[18] = tested on: velvetleaf (Abutilon theophrasti, ABUTH); test: as above; details: rated 14 days after application, 0 = no damage, 100 = complete death
Method in brief: as §3

[19] = tested on: large crabgrass (Digitaria sanguinalis, DIGSA); test: as above; details: rated 14 days after application, 0 = no damage, 100 = complete death
Method in brief: as §3

[20] = tested on: barnyardgrass (Echinochloa crus-galli, ECHCG); test: as above; details: rated 14 days after application, 0 = no damage, 100 = complete death
Method in brief: as §3

[21] = tested on: johnsongrass (Sorghum halepense, SORHA); test: as above; details: rated 14 days after application, 0 = no damage, 100 = complete death
Method in brief: as §3

[22] = tested on: green foxtail (Setaria viridis, SETVI); test: as above; details: rated 14 days after application, 0 = no damage, 100 = complete death
Method in brief: as §3

CCc1ccc(C(=O)Nc2c(OCC#N)c(Cl)cc(F)c2-n2c(=O)cc(C(F)(F)F)n(C)c2=O)cc1 [2-28]
Pre-emerge crop damage CORN (phytotoxicity rating, scale 0-100) ([1]; 63 g ai/ha): 0
Pre-emerge crop damage CORN (phytotoxicity rating, scale 0-100) ([1]; 250 g ai/ha): 10
Pre-emerge crop damage RICE (phytotoxicity rating, scale 0-100) ([2]; 63 g ai/ha): 60
Pre-emerge crop damage RICE (phytotoxicity rating, scale 0-100) ([2]; 250 g ai/ha): 70
Pre-emerge Herbicidal Activity AMARE (phytotoxicity rating, scale 0-100) ([3]; 63 g ai/ha): 100
Pre-emerge Herbicidal Activity AMARE (phytotoxicity rating, scale 0-100) ([3]; 250 g ai/ha): 100
Post-emerge Herbicidal Activity IPOHE ([4]; 63 g ai/ha): 60
Post-emerge Herbicidal Activity IPOHE ([4]; 250 g ai/ha): 50
Post-emerge Herbicidal Activity CASOB ([5]; 63 g ai/ha): 30
Post-emerge Herbicidal Activity CASOB ([5]; 250 g ai/ha): 20
Post-emerge Herbicidal Activity CHEAL ([6]; 63 g ai/ha): 60
Post-emerge Herbicidal Activity CHEAL ([6]; 250 g ai/ha): 60
Post-emerge Herbicidal Activity ABUTH ([7]; 63 g ai/ha): 100
Post-emerge Herbicidal Activity ABUTH ([7]; 250 g ai/ha): 100
Post-emerge Herbicidal Activity DIGSA ([8]; 63 g ai/ha): 0
Post-emerge Herbicidal Activity DIGSA ([8]; 250 g ai/ha): 0
Post-emerge Herbicidal Activity ECHCG ([9]; 63 g ai/ha): 0
Post-emerge Herbicidal Activity ECHCG ([9]; 250 g ai/ha): 0
Post-emerge Herbicidal Activity SORHA ([10]; 63 g ai/ha): 0
Post-emerge Herbicidal Activity SORHA ([10]; 250 g ai/ha): 0
Post-emerge Herbicidal Activity SETVI ([11]; 63 g ai/ha): 30
Post-emerge Herbicidal Activity SETVI ([11]; 250 g ai/ha): 30
Post-emerge Herbicidal Activity AMARE ([12]; 63 g ai/ha): 100
Post-emerge Herbicidal Activity AMARE ([12]; 250 g ai/ha): 100
Post-emerge Herbicidal Activity CORN (crop damage) ([13]; 63 g ai/ha): 15
Post-emerge Herbicidal Activity CORN (crop damage) ([13]; 250 g ai/ha): 25
Post-emerge Herbicidal Activity RICE (crop damage) ([14]; 63 g ai/ha): 90
Post-emerge Herbicidal Activity RICE (crop damage) ([14]; 250 g ai/ha): 90
Pre-emerge Herbicidal Activity IPOHE (phytotoxicity rating, scale 0-100) ([15]; 63 g ai/ha): 80
Pre-emerge Herbicidal Activity IPOHE (phytotoxicity rating, scale 0-100) ([15]; 250 g ai/ha): 100
Pre-emerge Herbicidal Activity CASOB (phytotoxicity rating, scale 0-100) ([16]; 63 g ai/ha): 5
Pre-emerge Herbicidal Activity CASOB (phytotoxicity rating, scale 0-100) ([16]; 250 g ai/ha): 100
Pre-emerge Herbicidal Activity CHEAL (phytotoxicity rating, scale 0-100) ([17]; 63 g ai/ha): 100
Pre-emerge Herbicidal Activity CHEAL (phytotoxicity rating, scale 0-100) ([17]; 250 g ai/ha): 100
Pre-emerge Herbicidal Activity ABUTH (phytotoxicity rating, scale 0-100) ([18]; 63 g ai/ha): 100
Pre-emerge Herbicidal Activity ABUTH (phytotoxicity rating, scale 0-100) ([18]; 250 g ai/ha): 100
Pre-emerge Herbicidal Activity DIGSA (phytotoxicity rating, scale 0-100) ([19]; 63 g ai/ha): 50
Pre-emerge Herbicidal Activity DIGSA (phytotoxicity rating, scale 0-100) ([19]; 250 g ai/ha): 90
Pre-emerge Herbicidal Activity ECHCG (phytotoxicity rating, scale 0-100) ([20]; 63 g ai/ha): 0
Pre-emerge Herbicidal Activity ECHCG (phytotoxicity rating, scale 0-100) ([20]; 250 g ai/ha): 20
Pre-emerge Herbicidal Activity SORHA (phytotoxicity rating, scale 0-100) ([21]; 63 g ai/ha): 10
Pre-emerge Herbicidal Activity SORHA (phytotoxicity rating, scale 0-100) ([21]; 250 g ai/ha): 50
Pre-emerge Herbicidal Activity SETVI (phytotoxicity rating, scale 0-100) ([22]; 63 g ai/ha): 50
Pre-emerge Herbicidal Activity SETVI (phytotoxicity rating, scale 0-100) ([22]; 250 g ai/ha): 100

COc1c(Cl)cc(F)c(-n2c(=O)cc(C(F)(F)F)n(C)c2=O)c1NC(=O)c1ccc(C)c(C)c1 [2-32]
Pre-emerge phytotoxicity rating (0-100), crop damage, CORN ([1]; 63 g ai/ha): 40
Pre-emerge phytotoxicity rating (0-100), crop damage, CORN ([1]; 250 g ai/ha): 95
Pre-emerge phytotoxicity rating (0-100), crop damage, RICE ([2]; 63 g ai/ha): 80
Pre-emerge phytotoxicity rating (0-100), crop damage, RICE ([2]; 250 g ai/ha): 99
Pre-emerge Herbicidal Activity, phytotoxicity rating (0-100), AMARE ([3]; 63 g ai/ha): 100
Pre-emerge Herbicidal Activity, phytotoxicity rating (0-100), AMARE ([3]; 250 g ai/ha): 100
Post-emerge Herbicidal Activity IPOHE ([4]; 63 g ai/ha): 100
Post-emerge Herbicidal Activity IPOHE ([4]; 250 g ai/ha): 100
Post-emerge Herbicidal Activity CASOB ([5]; 63 g ai/ha): 80
Post-emerge Herbicidal Activity CASOB ([5]; 250 g ai/ha): 100
Post-emerge Herbicidal Activity CHEAL ([6]; 63 g ai/ha): 95
Post-emerge Herbicidal Activity CHEAL ([6]; 250 g ai/ha): 100
Post-emerge Herbicidal Activity ABUTH ([7]; 63 g ai/ha): 100
Post-emerge Herbicidal Activity ABUTH ([7]; 250 g ai/ha): 100
Post-emerge Herbicidal Activity DIGSA ([8]; 63 g ai/ha): 0
Post-emerge Herbicidal Activity DIGSA ([8]; 250 g ai/ha): 70
Post-emerge Herbicidal Activity ECHCG ([9]; 63 g ai/ha): 0
Post-emerge Herbicidal Activity ECHCG ([9]; 250 g ai/ha): 90
Post-emerge Herbicidal Activity SORHA ([10]; 63 g ai/ha): 50
Post-emerge Herbicidal Activity SORHA ([10]; 250 g ai/ha): 95
Post-emerge Herbicidal Activity SETVI ([11]; 63 g ai/ha): 0
Post-emerge Herbicidal Activity SETVI ([11]; 250 g ai/ha): 90
Post-emerge Herbicidal Activity AMARE ([12]; 63 g ai/ha): 100
Post-emerge Herbicidal Activity AMARE ([12]; 250 g ai/ha): 100
Post-emerge Herbicidal Activity CORN (crop damage) ([13]; 63 g ai/ha): 30
Post-emerge Herbicidal Activity CORN (crop damage) ([13]; 250 g ai/ha): 95
Post-emerge Herbicidal Activity RICE (crop damage) ([14]; 63 g ai/ha): 30
Post-emerge Herbicidal Activity RICE (crop damage) ([14]; 250 g ai/ha): 80
Pre-emerge Herbicidal Activity, phytotoxicity rating (0-100), IPOHE ([15]; 63 g ai/ha): 100
Pre-emerge Herbicidal Activity, phytotoxicity rating (0-100), IPOHE ([15]; 250 g ai/ha): 100
Pre-emerge Herbicidal Activity, phytotoxicity rating (0-100), CASOB ([16]; 63 g ai/ha): 95
Pre-emerge Herbicidal Activity, phytotoxicity rating (0-100), CASOB ([16]; 250 g ai/ha): 100
Pre-emerge Herbicidal Activity, phytotoxicity rating (0-100), CHEAL ([17]; 63 g ai/ha): 100
Pre-emerge Herbicidal Activity, phytotoxicity rating (0-100), CHEAL ([17]; 250 g ai/ha): 100
Pre-emerge Herbicidal Activity, phytotoxicity rating (0-100), ABUTH ([18]; 63 g ai/ha): 100
Pre-emerge Herbicidal Activity, phytotoxicity rating (0-100), ABUTH ([18]; 250 g ai/ha): 100
Pre-emerge Herbicidal Activity, phytotoxicity rating (0-100), DIGSA ([19]; 63 g ai/ha): 100
Pre-emerge Herbicidal Activity, phytotoxicity rating (0-100), DIGSA ([19]; 250 g ai/ha): 100
Pre-emerge Herbicidal Activity, phytotoxicity rating (0-100), ECHCG ([20]; 63 g ai/ha): 99
Pre-emerge Herbicidal Activity, phytotoxicity rating (0-100), ECHCG ([20]; 250 g ai/ha): 100
Pre-emerge Herbicidal Activity, phytotoxicity rating (0-100), SORHA ([21]; 63 g ai/ha): 90
Pre-emerge Herbicidal Activity, phytotoxicity rating (0-100), SORHA ([21]; 250 g ai/ha): 100
Pre-emerge Herbicidal Activity, phytotoxicity rating (0-100), SETVI ([22]; 63 g ai/ha): 100
Pre-emerge Herbicidal Activity, phytotoxicity rating (0-100), SETVI ([22]; 250 g ai/ha): 100
